According to ChEMBL document CHEMBL3400138, “Synthesis of 3-azabicyclo[3.2.2]nonanes and their antiprotozoal activities” (Bioorg Med Chem Lett, 2015):

Legend:
[1] = tested on: Plasmodium falciparum; assay: Antiplasmodial activity against chloroquine and pyrimethamine resistant Plasmodium falciparum K1 infected in human red blood cells assessed as reduction in parasite viability after 48 hrs by [3H]-hypoxanthine incorporation assay; format: functional, organism-based
[2] = tested on: Trypanosoma brucei rhodesiense; assay: Antitrypanosomal activity against Trypanosoma brucei rhodesiense STIB900 bloodstream forms after 72 hrs by alamar blue assay; format: functional, organism-based; conditions: STIB900, 72 h
[3] = Selectivity index, ratio of CC50 for rat L6 cells to IC50 for chloroquine and pyrimethamine resistant Plasmodium falciparum K1; format: functional
[4] = Selectivity index, ratio of CC50 for rat L6 cells to IC50 for Trypanosoma brucei rhodesiense STIB900; format: functional
[5] = tested on: L6; assay: Cytotoxicity against rat L6 cells after 72 hrs by alamar blue assay; format: cell-based; conditions: L6, 72 h
[6] = tested on: Plasmodium berghei; assay: Antiplasmodial activity against GFP-transfected Plasmodium berghei ANKA infected in NMRI mouse assessed as mean survival day at 50 mg/kg, ip administered 4, 24, 48 and 72 hrs post infection (reference value: 4 to 6 days); format: functional; conditions: route intraperitoneal
[7] = tested on: Plasmodium berghei; assay: Growth inhibition of Plasmodium berghei infected in mouse; format: functional
[8] = tested on: Plasmodium berghei; assay: Antiplasmodial activity against GFP-transfected Plasmodium berghei ANKA infected in NMRI mouse assessed as reduction in parasitemia at 50 mg/kg, ip administered 4, 24, 48 and 72 hrs post infection by FACS analysis; format: functional; conditions: route intraperitoneal

Cl.O=C1NCC2(N3CCOCC3)CC(c3ccccc3)C1C(c1ccccc1)C2 (configuration not stated)
IC50 [1]: > 13.3 µM | IC50 [2]: 128 µM | Ratio IC50 [3]: 18 | Ratio IC50 [4]: 1.9 | IC50 [5]: > 239 µM

CN(C)C12CNCC(C(c3ccc(Cl)cc3)C1)C(c1ccc(Cl)cc1)C2.Cl (configuration not stated)
IC50 [1]: 0.77 µM | IC50 [2]: 0.34 µM | Ratio IC50 [3]: 11.63 | Ratio IC50 [4]: 26.4 | IC50 [5]: 8.96 µM

CN(C)C12CC(=O)NC(C(c3ccccc3)C1)C(c1ccccc1)C2.Cl (racemic)
Ratio IC50 [4]: 7.1

Cl.O=C1CC2(N3CCOCC3)CC(c3ccccc3)C(N1)C(c1ccccc1)C2 (racemic)
IC50 [1]: > 13.3 µM | IC50 [2]: 138 µM | Ratio IC50 [3]: 18 | Ratio IC50 [4]: 1.7 | IC50 [5]: > 239 µM

Cl.O=C1CC2(N3CCCC3)CC(c3ccccc3)C(N1)C(c1ccccc1)C2 (racemic)
Ratio IC50 [3]: 28.5 | Ratio IC50 [4]: 6.6

Cl.O=C1CC2(N3CCCCC3)CC(c3ccccc3)C(N1)C(c1ccccc1)C2 (racemic)
Ratio IC50 [4]: 6.4

CN(C)C12CCNC(C(c3ccccc3)C1)C(c1ccccc1)C2.Cl (racemic)
MSD [6]: 6.3 days | growth inhibition (GI) [7]: 35% | Ratio IC50 [4]: 181 | inhibition in vivo at 50 mg/kg [8]: 35.1%

Cl.c1ccc(C2CC3(N4CCOCC4)CCNC2C(c2ccccc2)C3)cc1 (racemic)
IC50 [1]: 6.84 µM | IC50 [2]: 9.44 µM | Ratio IC50 [3]: 30.22 | Ratio IC50 [4]: 21.9 | IC50 [5]: > 207 µM

Cl.c1ccc(C2CC3(N4CCCC4)CCNC2C(c2ccccc2)C3)cc1 (racemic)
Ratio IC50 [4]: 103

Cl.c1ccc(C2CC3(N4CCCCC4)CCNC2C(c2ccccc2)C3)cc1 (racemic)
Ratio IC50 [4]: 13.7

CN(C)C12CCNC(C(c3ccc(Cl)cc3)C1)C(c1ccc(Cl)cc1)C2.Cl (racemic)
Ratio IC50 [4]: 143

Cl.Clc1ccc(C2CC3(N4CCCC4)CCNC2C(c2ccc(Cl)cc2)C3)cc1 (racemic)
Ratio IC50 [4]: 152
